Test results taken from US7351695B2, “Topiramate salts and compositions comprising and methods of making and using the same” (Ortho-McNeil Pharmaceuticals, Inc., priority 2002, dated 2008).
Where “and” joins values, the source holds several entries; their conditions need not be identical. Equal entries are not always repeated. Where two headings read alike, the source gives them in different places.

Tests used:
[1] = Estimation of solubility: minimum solvent needed to dissolve a known amount; assay type: physicochemical; settings: for Solubility (amount of solid in mL of solvent): sodium trihydrate
Experimental: The solubility of the topiramate sodium trihydrate prepared in this example in water, ethanol, methanol, and THF was estimated by determining the minimum amount of solvent necessary to dissolve a known amount of the compound. In general, a predetermined amount of the compound was placed in a small glass vial, and then solvent was added drop-wise at room temperature until no visible solid remained in the vial.

[2] = pH of an aqueous solution (pH meter); assay type: physicochemical; settings: 400 mg/mL solution in distilled water
[3] = Dissolution curves in 0.01 N HCl; assay type: physicochemical; settings: for state at the end of the dissolution experiment: nominal about 110 mM (37 mg/mL free acid concentration)
Text: FIG. 6 provides results of a comparison between the aqueous solubility of topiramate sodium trihydrate with that of topiramate. […] Independently, a set of dissolution curves were obtained in 0.01 N HCl (representative of a modestly acidic stomach), and these are shown in FIG. 7.

[4] = Physical stability by TGA and PXRD at preset temperature and relative humidity; assay type: physicochemical; settings: for Physical stability result (solid form): 2 weeks
Experimental: A further study on physical stability of a sample from this example was conducted in glass vials at preset temperatures and controlled relative humidities. The humidities stored at room temperature were controlled using saturated salt solutions (see H. Nyquist, Pharm. Tech. 4(2):47-48 (1983)). At other temperatures, the oven configurations allowed humidity control. After 2 weeks, samples at various conditions were tested by TGA and PXRD to assess whether the crystalline topiramate sodium trihydrate remained intact or not. The data in Table 3 summarize findings after 2 weeks of incubation.

[5] = Chemical stability by HPLC analysis of stored samples; assay type: physicochemical
[6] = Oral pharmacokinetics in rats, capsules by gavage, plasma by LC/MS/MS; assay type: in vivo, male Sprague-Dawley rats; settings: rat
[7] = cited from earlier work
[8] = in vivo; cited from earlier work
kindled seizures = settings: rats; cited from earlier work
[9] = nominal concentration about 110 mM

In the case of `CC1(C)O[C@@H]2[C@@H](CO[C@@]3(COS(N)(=O)=O)OC(C)(C)O[C@@H]23)O1` [topiramate sodium trihydrate], the solubility ([1]; THF, room temperature (slight overestimate), read-out: Solubility (amount of solid in mL of solvent)) is reported as 44.2 mg/mL, the solubility ([1]; ethanol, room temperature, read-out: Solubility (amount of solid in mL of solvent)) is reported as 376 mg/mL and the solubility ([1]; methanol, room temperature, single trials, read-out: Solubility (amount of solid in mL of solvent)) is reported as 1280 mg/mL. The “Solubility (amount of solid in mL of solvent)” value ([1]; methanol, room temperature, single trials) was 1600 mg/mL and 1530 mg/mL, the solubility ([1]; methanol, room temperature, read-out: Average Solubility) was 1470 mg/mL and the “aqueous solubility relative to topiramate” value ([1]; vs. literature value of […]) was “over 100 times”. For the same compound, the solubility ([1]; water, FIG. 6, read-out: aqueous solubility) was 1300 mg/mL, the solubility ([1]; water, room temperature, single trials, read-out: Solubility (amount of solid in mL of solvent)) was 1240 mg/mL and the “Solubility (amount of solid in mL of solvent)” value ([1]; water, room temperature, single trials) was 1435 mg/mL. The solubility ([1]; water, room temperature, read-out: Average Solubility) was 1330 mg/mL, the pH of solution [2] was “about 11.2” and the “solubility at the equilibrium condition relative to (1) and (3)” value [3] was “increased solubility”. For the same compound, the “state at the end of the dissolution experiment” value ([3]; listed as topiramate sodium salt trihydrate, sodium trihydrate) was “not saturated”, the “pH at the equilibrium condition” value [3, 9] was 9.5 and the “Physical stability result (solid form)” value ([4]; 5 °C, ambient RH (refrigerated)) was “Trihydrate”. For the same compound, the “Physical stability result (solid form)” value ([4]; 25 °C, 31% RH) was “Trihydrate”, the “Physical stability result (solid form)” value ([4]; 25 °C, 75% RH) was “Trihydrate” and the “Physical stability result (solid form)” value ([4]; 25 °C, <5% RH) was “Trihydrate & some amorphous”. For the same compound, the “Physical stability result (solid form)” value ([4]; 40 °C, 75% RH) was “Trihydrate”, the “Physical stability result (solid form)” value ([4]; 40 °C, ambient RH (<20)) was “Trihydrate” and the “Physical stability result (solid form)” value ([4]; 60 °C, ambient RH (<10)) was “Amorphous”. For the same compound, the “Physical stability result (solid form)” value ([4]; 80 °C, ambient RH (<5)) was “Amorphous”, the “temperature up to which the hydrate stays intact” value ([4]; by TGA) was at most 40 °C and the “chemical degradation by HPLC” value ([5]; 2 weeks at 25° C./<5% RH, 25° C./31% RH, 25° C./75% RH, 40° C./ambient RH, or 40° C./75% RH) was “No chemical degradation”. The “chemical degradation by HPLC” value ([5]; >12 weeks at 25° C./<5% RH, 25° C./31% RH, 25° C./75% RH, or 40° C./75% RH) was “No chemical degradation”, the “chemical degradation by HPLC” value ([5]; stored at or above 60° C. for at least 2 weeks) was “Degradates were observed” and the Tmax ([6]; male, Sprague-Dawley, plasma, oral capsule, 30 mg/kg free topiramate equivalent, first time point, read-out: time of peak plasma concentration (tmax)) was 30 min. For the same compound, the “plasma profile, comparison in words” value ([6]; oral, 30 mg/kg, FIG. 10) was “comparable to an oral solution of TOPAMAX®”.

For `CC1(C)O[C@@H]2[C@@H](CO[C@@]3(COS(N)(=O)=O)OC(C)(C)O[C@@H]23)O1` [topiramate, 2,3:4,5-Di-O-isopropylidene-β-D-fructopyranose sulfamate], the “state at the end of the dissolution experiment” value ([3]; listed as topiramate crystal form) is given as “remained as suspensions”, the “time at which dissolution was essentially complete” value [3, 9] is given as 5 min and the “solubility in acetone, chloroform, dimethylsulfoxide, and ethanol” value [7] is given as “freely soluble”. For the same compound, the “time to reach peak plasma levels” value [8] was “about two” and the blocking kindled seizures (kindled seizures) was “effective in blocking kindled seizures”.
